The values below are quoted from earlier work in patent US6284909A, “Preparations of thiophosphites and thiophosphonates” (University of Southern California, priority 2000, dated 2001).

Each structure is given as a SMILES string. Like-named read-outs stand apart in the source and are kept apart here.

For data set [1] the following is noted: clinical trials.
For data set [2] the following is noted: clinical trials. This is another data set of the same source.
Data set [3] relates to HIV.
In data set [4] the test system is HIV reverse transcriptase.
Another data set deals with CMV. The settings on record: in culture.
The subject of data set [5] is HIV. The conditions noted are these: U.S. Pat. Nos. 5,072,032 and 5,183,812.
For a further data set, the system named is H9 cells. The conditions noted are these: at effective antiviral doses.
In data set [6] the test system is Herpesvirus DNA polymerases.
For data set [7], the system named is DNA polymerase of Cytomegalovirus (CMV).

Regarding `O=C(O)P(=O)(O)O` [PFA, phosphonoformic acid], the “inhibition of HIV-1” value with HIV-1 is “shown to inhibit HIV-1”. Moreover, the oral bioavailability entry in data set [1] was “poor”. In addition, in data set [2], the “characterization of nephrotoxicity: serum creatinine” value is “increased serum creatinine”, the “characterization of nephrotoxicity: tubulopathy” value is recorded as “acute toxic tubolopathy” and the nephrotoxicity entry is recorded as “reversible nephrotoxity”.

Regarding `O=C(O)P(O)(O)=S` [Thiovir®, trisodium thiophosphonoformate], the “antiviral activity against HIV compared to DNA polymerase inhibiting activity” value in the data set with HIV [3] is recorded as “unexpectedly high antiviral activity against HIV”. Moreover, the “selectivity of inhibition of isolated HIV RT” value in data set [4] (in vitro, vs human DNA polymerases) is listed as “selectively inhibited”. Also, in data set [4] (isolated HIV RT, in vitro, Thiovir, read-out: IC50), the IC50 is about 1000 nM. Also, the “antiviral activity against CMV-infected cells” value in the data set on CMV was “exhibited antiviral activity against CMV-infected cells”. In addition, the “effectiveness against HIV, the AIDS virus” value with HIV [5] was “effective against HIV”. Also, the “toxicity to cultured H9 cells” value in the data set on H9 cells is listed as “non-toxic”.

As for `O=C(O)P(=O)(O)O` [foscarnet, Trisodium phosphonoformate], the IC50 in data set [4] (trisodium phosphonoformate, known, read-out: IC50 (HIV reverse transcriptase)) is about 1000 nM. Also, in data set [6], the “inhibition of several Herpesvirus DNA polymerases” value is reported as “inhibit several Herpesvirus DNA polymerases”. Besides, the “inhibition of the DNA polymerase of Cytomegalovirus (CMV)” value in data set [7] is on record as “inhibit”. For the same compound, the “inhibition of human DNA polymerases, compared with Thiovir” value in the data set with human DNA polymerases is on record as “more inhibitory to human DNA polymerases”. The “toxicity to cultured H9 cells” value in the data set on H9 cells is reported as “non-toxic”.

As a reminder, the IC50 is the midpoint of a concentration-inhibition curve.
